In patent US10533010B2, “Substituted indole Mcl-1 inhibitors” (Vanderbilt University, priority 2014, dated 2020) one finds Ki, IC50 and EC50 data, which are given here for one molecule.

The term Ki denotes the dissociation constant of the complex between target and ligand, obtained from inhibition or displacement.

The target of assay [1] is recombinant Mcl-1 (residues 172-327) (Homo sapiens (Human), UniProt Q07820). The assay is described as follows: Fluorescence polarization anisotropy competition assay (FITC-Bak or FITC-Bim BH3 peptide) with Mcl-1. The note with it: Table 2; Ki bins given in nM; FITC-Bak or FITC-Bim peptide competition; Ki converted from IC50; read-out: Ki for Inhibition of Mcl-1. Type of assay: binding. On the technique in general: Fluorescence polarisation rises when a labelled molecule tumbles more slowly, as on binding a larger partner.

Another assay has as its system K562. Briefly: Cellular viability (Cell TiterGlo) K562. Type of assay: cell-based. To be noted: Homo sapiens; K562 cells, 72 hours, 10% FBS; read-out: IC50 on cellular proliferation, K562. The protocol: (§1) Human cancer cell lines ALMC-1, ALMC-2, K562, H929, and OPM-2 were cultured in media supplemented with 10% fetal bovine serum (FBS). To evaluate compound effect on cellular proliferation, cells were plated at 1,000 cells/well in 96-well tissue culture plates in a total volume of 90 μL medium supplemented with 10% FBS (Sigma, Saint Louis, Mo.). 24 hours later, 10 μL of compound (in a 2-fold serial dilution) is added to the cells for a top concentration of 50 μM and a final DMSO concentration <1%. After 72 hours, 50 μL of Cell TiterGlo (Promega, Madison, Wis., USA) reagent is added to each well and plates are incubated at room temperature, in the dark, for 30 minutes. Luminescence is measured on a BioTek Cytation 3. Luminescence values are imported into a template in XLFit (Guildford, Surrey, UK) that uses a four-parameter fit to generate an IC50 value for each compound dilution series on the plate.

Assay [2] relates to H929. Briefly: Cellular viability (Cell TiterGlo) H929. Type of assay: cell-based. The note with it: Homo sapiens, NCI-H929; H929 cells, 72 hours, 10% FBS; read-out: IC50 on cellular proliferation, H929. The protocol: as §1
A general note: ATP-based viability assays read luminescence as a measure of living cells.

In a further assay the test system is OPM-2. The assay is described as follows: Cellular viability (Cell TiterGlo) OPM-2. Type of assay: cell-based. To be noted: Homo sapiens; OPM-2 cells, 72 hours, 10% FBS; read-out: IC50 on cellular proliferation, OPM-2. Here is the method: as §1
For assay [3], the system named is H929. The assay is described as follows: Apoptosis assay (Caspase 3/7 Glo) H929. Type of assay: cell-based. The note with it: Homo sapiens, NCI-H929; H929 cells, 3 hours, 5% FBS; read-out: EC50 on cellular caspase 3/7 activation, H929. The protocol:
Induction of apoptosis was measured by quantifying caspase 3/7 activity using the commercially available Caspase-Glo reagent (Promega, Madison, Wis., USA). This assay relies on the cleavage of a proluminescent substrate by activated caspases, which is then detected on the BioTek Cytation 3. 5000 cells in 90 μL of media (+5% FBS) are plated in each well of a white 96-well plate and incubated overnight at 37° C. in a tissue culture incubator. The following day, compound is diluted in a 10-pt, 2-fold serial dilution scheme for a final top concentration of 50 μM. 10 μL of compound is added directly to the cell assay plate for a final volume of 100 μL. Columns 11 and 12 are reserved for treatment with DMSO to serve as control wells. Plates are incubated for 3 hours. 100 μL of Caspase-Glo reagent is added to each well and plates are incubated at room temperature, in the dark, for 30 minutes. Luminescence is measured on the Cytation 3. Luminescence values are imported into a template in XLFit (Guildford, Surrey, UK) that uses a four-parameter fit to generate an IC50 value for each compound dilution series on the plate.

In a further assay the test system is ALMC-2. Briefly: Cellular viability (Cell TiterGlo) ALMC-2. Type of assay: cell-based. The note with it: Homo sapiens, ALMC2; ALMC-2 cells, 72 hours, 10% FBS; read-out: IC50 on cellular proliferation, ALMC-2. The protocol: as §1
The next assay concerns ALMC-1. Briefly: Cellular viability (Cell TiterGlo) ALMC-1. Type of assay: cell-based. The note with it: Homo sapiens, ALMC1; ALMC-1 cells, 72 hours, 10% FBS; read-out: IC50 on cellular proliferation, ALMC-1. The protocol: as §1

recombinant Mcl-1 (residues 172-327), sequence (Q07820 172-327): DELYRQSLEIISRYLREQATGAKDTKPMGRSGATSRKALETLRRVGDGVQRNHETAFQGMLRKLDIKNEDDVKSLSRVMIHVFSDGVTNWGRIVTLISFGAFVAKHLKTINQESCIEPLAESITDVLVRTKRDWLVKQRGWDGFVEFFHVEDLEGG

For `Cc1cc(OCCCc2c3n(c4c(-c5c(C)nn(C)c5C)c(Cl)ccc24)CCN(c2cccc(C(=O)O)c2)C3=O)cc(C)c1Cl` [I-178, 3-(7-chloro-10-(3-(4-chloro-3,5-dimethylphenoxy)propyl)-1-oxo-6-(1,3,5-trimethyl-1H-pyrazol-4-yl)-3,4-dihydropyrazino[1,2-a]indol-2(1H)-yl)benzoic acid], the Ki in assay [1] is below 50 nM. In addition, the IC50 amounted to 11.8 µM in the assay on K562; 8.7 µM in the assay on H929 [2]; 11.7 µM in the assay on OPM-2; 8.7 µM in the assay on ALMC-2; 6.1 µM with ALMC-1. Moreover, the EC50 in the assay on H929 [3] stood at 3.1 µM.
